What was measured:
Format in all cases: cell-based
[1] = tested on: NCI-H1651; assay: Cell viability (CellTiter-Glo), NCI-H1651; conditions: Homo sapiens; NCI-H1651 cell line, 3-4 days of culture
Description: (§1) Cell viability was detected using the Promega CellTiter-Glo kit, the kit reflected cell viability by directly measuring intracellular ATP content. The inhibitory effect (IC50 value) of Gboxin, a mitochondrial oxidative phosphorylation pathway inhibitor, on different tumor cell lines was tested in the Example. The name, source, and culture condition of each tumor cell line were as follows:
Cell line NCI-H1651 (ATCC, No. CRL-5884) was cultured in 10% fetal bovine serum-containing ACL-4 medium (+P/S).
(§2) The above tumor cells were cultured in the relevant medium (+P/S), and incubated for 3 h, then the gradient diluted Gboxin was added, and IC50 (50% inhibiting concentration) was measured after 3-4 days of culture.

[2] = tested on: AM-38; assay: Cell viability (CellTiter-Glo), AM-38; conditions: Homo sapiens; AM-38 cell line, 3-4 days of culture
Description: as §1
Cell line AM-38 (JCRB, No. IF050492) was cultured in EMEM medium containing 20% heat-inactivated fetal bovine serum (+P/S).
as §2

[3] = tested on: NCI-H1793; assay: Cell viability (CellTiter-Glo), NCI-H1793; conditions: Homo sapiens; NCI-H1793 cell line, 3-4 days of culture
Description: as §1
Cell line NCI-H1793 (ATCC, No. CRL-5896) was cultured in 5% fetal bovine serum-containing HITES medium (+P/S).
as §2

[4] = tested on: LS 180; assay: Cell viability (CellTiter-Glo), LS 180; conditions: Homo sapiens, LS180; LS 180 cell line, 3-4 days of culture
Description: as §1
Cell line LS 180 (ATCC, No. CL-187) was cultured in 10% fetal bovine serum-containing EMEM medium (+P/S).
as §2

[5] = tested on: SNU-398; assay: Cell viability (CellTiter-Glo), SNU-398; conditions: Homo sapiens; SNU-398 cell line, 3-4 days of culture
Description: as §1
Cell line SNU-398 (ATCC, No. CRL-2233) was cultured in 10% fetal bovine serum-containing RPMI1640 medium (+P/S).
as §2

[6] = tested on: OCI-M1; assay: Cell viability (CellTiter-Glo), OCI-M1; conditions: OCI-M1 cell line, 3-4 days of culture
Description: as §1
Cell line OCI-M1 (DSMZ, No. ACC-529) was cultured in 20% fetal bovine serum-containing IMDM medium (+P/S).
as §2

[7] = tested on: CFPAC-1; assay: Cell viability (CellTiter-Glo), CFPAC-1; conditions: Homo sapiens; CFPAC-1 cell line, 3-4 days of culture
Description: as §1, with “follows: Cell line CFPAC-1 (ATCC, No. CRL-1918) was cultured in 10% fetal bovine serum-containing IMDM medium (+P/S). […] Cell viability was detected using the Promega CellTiter-Glo kit, the kit reflected cell viability by directly measuring intracellular ATP content.” for “follows:”

[8] = tested on: NCI-H1155; assay: Cell viability (CellTiter-Glo), NCI-H1155; conditions: Homo sapiens; NCI-H1155 cell line, 3-4 days of culture
Description: as §1
Cell line NCI-H1155 (ATCC, No. CRL-5818) was cultured in serum-free ACL-4 medium (+P/S).
as §2

[9] = tested on: NCI-H1048; assay: Cell viability (CellTiter-Glo), NCI-H1048; conditions: Homo sapiens; NCI-H1048 cell line, 3-4 days of culture
Description: as §1
Cell line NCI-H1048 (ATCC, No. CRL-5853) was cultured in 5% fetal bovine serum-containing HITES medium (+P/S).
as §2

[10] = tested on: H9; assay: Cell viability (CellTiter-Glo), H9; conditions: Homo sapiens; H9 cell line, 3-4 days of culture
Description: as §1
Cell line H9 (ATCC, No. HTB-176) was cultured in 10% fetal bovine serum-containing RPMI1640 medium (+P/S).
as §2

[11] = tested on: SU-DHL-2; assay: Cell viability (CellTiter-Glo), SU-DHL-2; conditions: Homo sapiens; SU-DHL-2 cell line, 3-4 days of culture
Description: as §1
Cell line SU-DHL-2 (ATCC, No. CRL-2956) was cultured in 10% fetal bovine serum-containing RPMI1640 medium (+P/S).
as §2

[12] = tested on: BT-549; assay: Cell viability (CellTiter-Glo), BT-549; conditions: Homo sapiens; BT-549 cell line, 3-4 days of culture
Description: as §1
Cell line BT-549 (ATCC, No. HTB-122) was cultured in RPMI1640 medium containing 10% fetal bovine serum and 0.023 IU/ml human insulin (+P/S).
as §2

[13] = tested on: A-375; assay: Cell viability (CellTiter-Glo), A-375; conditions: Homo sapiens; A-375 cell line, 3-4 days of culture
Description: as §1
Cell line A-375 (ATCC, No. CRL-1619) was cultured in 10% fetal bovine serum-containing DMEM medium (+P/S).
as §2

[14] = tested on: CHL-1; assay: Cell viability (CellTiter-Glo), CHL-1; conditions: Homo sapiens; CHL-1 cell line, 3-4 days of culture
Description: as §1
Cell line CHL-1 (ATCC, No. CRL-9446) was cultured in 10% fetal bovine serum-containing DMEM medium (+P/S).
as §2

[15] = tested on: G-361; assay: Cell viability (CellTiter-Glo), G-361; conditions: Homo sapiens; G-361 cell line, 3-4 days of culture
Description: as §1
Cell line G-361 (ATCC, No. CRL-1424) was cultured in 10% fetal bovine serum-containing McCoy's 5a medium (+P/S).
as §2

[16] = tested on: MDA-MB-453; assay: Cell viability (CellTiter-Glo), MDA-MB-453; conditions: Homo sapiens; MDA-MB-453 cell line, 3-4 days of culture
Description: as §1, with “follows: Cell line MDA-MB-453 (ATCC, No. HTB-131) was cultured in 10% fetal bovine serum-containing Leibovitz's L-15 medium (+P/S). […] Cell viability was detected using the Promega CellTiter-Glo kit, the kit reflected cell viability by directly measuring intracellular ATP content.” for “follows:”

[17] = tested on: C3A; assay: Cell viability (CellTiter-Glo), C3A; conditions: Homo sapiens; C3A cell line, 3-4 days of culture
Description: as §1
Cell line C3A (ATCC, No. CRL-10741) was cultured in 10% fetal bovine serum-containing EMEM medium (+P/S).
as §2

## CCc1n(CC(=O)O[C@@H]2C[C@H](C)CC[C@H]2C(C)C)c2ccccc2[n+]1C.[Cl-] [Gboxin]
[1]
  IC50: 22.4 µM
[2]
  IC50: 10.3 µM
[3]
  IC50: 16 µM
[4]
  IC50: 8.9 µM
[5]
  IC50: 4.17 µM
[6]
  IC50: 21.7 µM
[7]
  IC50: > 30 µM
[8]
  IC50: 8.84 µM
[9]
  IC50: 4.34 µM
[10]
  IC50: 3.34 µM
[11]
  IC50: 0.97 µM
[12]
  IC50: 3.28 µM
[13]
  IC50: 4.65 µM
[14]
  IC50: 7.68 µM
[15]
  IC50: 3.88 µM
[16]
  IC50: 0.942 µM
[17]
  IC50: 25.7 µM

From patent publication US20230355647A1, “Marker for determining anti-cancer effects of mitochondrial oxidative phosphorylation pathway inhibitor” (NANJING SHIJIANG MEDICINE TECHNOLOGY CO., LTD, priority 2020, published 2023)
